Earlier results as cited in patent US20050065129A1, “2-Alkylidene-19-nor-vitamin D derivatives for the treatment of frailty, muscle damage or sarcopenia” (Pfizer Inc, priority 2003, published 2005).

How the values were obtained:
[1] = tested on: Intestinal Calcium Transport; settings: chronic 7 days, 130 and/or 260 pmol/day, rats
[2] = tested on: Serum Calcium (Bone Calcium Mobilization); settings: chronic 7 days, rats; for bone calcium mobilization activity (in words): 130 and 260 pmol/day

Row | Compound | intestinal calcium transport activity (in words) [1] | bone calcium mobilization activity (in words) [2] | bone calcium mobilization (serum calcium) activity relative to 1,25-(OH)2D3 (native hormone) ([2]; estimate)
1 | C=C1/C(=C\C=C2/CCC[C@]3(C)[C@@H]([C@H](C)CCCC(C)(C)O)CC[C@@H]23)C[C@@H](O)C[C@@H]1O [1,25-(OH)2D3, 1,25-dihydroxyvitamin D3, reference compound] | expected elevation | – | –
2 | C=C1[C@H](O)CC(=C/C=C2\CCC[C@]3(C)[C@@H]([C@H](C)CCCC(C)(C)O)CC[C@@H]23)C[C@H]1O [2-Methylene-19-Nor-1,25-(OH)2D3, 1α,25-dihydroxy-2-methylene-19-nor-vitamin D3] | no intestinal calcium transport activity | extremely strong bone calcium mobilization | 10-100 times
3 | C=C1[C@H](O)CC(=C/C=C2\CCC[C@]3(C)[C@@H]([C@@H](C)CCCC(C)(C)O)CC[C@@H]23)C[C@H]1O [2-Methylene-19-Nor-20S-1,25-(OH)2D3, (20S)-1α,25-dihydroxy-2-methylene-19-nor-vitamin D3] | no significant change | most potent compound tested | –
